ChEMBL document CHEMBL1681651, “A broad spectrum anticancer nucleoside with selective toxicity against human colon cells in vitro” (2011)

What was measured:
Format in all cases: functional
CCRF-CEM = assay: Growth inhibition of human CCRF-CEM cells after 48 hrs by […] growth inhibition assay
Malme-3M = assay: Growth inhibition of human MALME-3M cells assessed as cell growth at 0.1 uM after 48 hrs by SRB assay; details: read-out: Activity
SF-268 [1] = assay: Growth inhibition of human SF268 cells assessed as cell growth at 1 uM after 48 hrs by SRB assay; details: SF-268, 48 h, read-out: Activity
SK-MEL-2 = assay: Growth inhibition of human SK-MEL-2 cells assessed as cell growth at 100 uM after 48 hrs by SRB assay; details: SK-MEL-2, 48 h, read-out: Activity
SNB-75 = assay: Growth inhibition of human SNB75 cells assessed as cell growth at 10 uM after 48 hrs by SRB assay; details: SNB-75, 48 h, read-out: Activity
SNB-19 = assay: Growth inhibition of human SNB19 cells assessed as cell growth at 10 uM after 48 hrs by SRB assay; details: SNB-19, 48 h, read-out: Activity
MDA-MB-231 = assay: Growth inhibition of human MDA-MB-231 cells assessed as cell growth at 0.1 uM after 48 hrs by SRB assay; details: MDA-MB-231, 48 h, read-out: Activity
NCI/ADR-RES [2] = assay: Growth inhibition of human NCI/ADR-RES cells assessed as cell growth at 0.1 uM after 48 hrs by SRB assay; details: read-out: Activity
SK-OV-3 = assay: Growth inhibition of human SKOV3 cells assessed as cell growth at 0.1 uM after 48 hrs by SRB assay; details: SK-OV-3, 48 h, read-out: Activity
OVCAR-4 [3] = assay: Growth inhibition of human OVCAR4 cells assessed as cell growth at 100 uM after 48 hrs by SRB assay; details: OVCAR-4, 48 h, read-out: Activity
BT-549 = assay: Growth inhibition of human BT549 cells after 48 hrs by […] growth inhibition assay; details: BT-549, 48 h
HCC 2998 [4] = assay: Growth inhibition of human HCC2998 cells assessed as cell growth at 10 uM after 48 hrs by SRB assay; details: HCC 2998, 48 h, read-out: Activity
NCI-H226 = assay: Growth inhibition of human NCI-H226 cells assessed as cell growth at 1 uM after 48 hrs by SRB assay; details: NCI-H226, 48 h, read-out: Activity
HCT-116 = assay: Growth inhibition of human HCT116 cells after 48 hrs by […] growth inhibition assay; details: HCT-116, 48 h
SF-268 [5] = assay: Growth inhibition of human SF268 cells assessed as cell growth at 1 mM after 48 hrs by SRB assay; details: SF-268, 48 h, read-out: Activity
EKVX = assay: Growth inhibition of human EKVX cells after 48 hrs by […] growth inhibition assay
SN12C = assay: Growth inhibition of human SN12C cells assessed as cell growth at 0.1 uM after 48 hrs by SRB assay; details: read-out: Activity
NCI-H522 = assay: Growth inhibition of human NCI-H522 cells assessed as cell growth at 100 uM after 48 hrs by SRB assay; details: NCI-H522, 48 h, read-out: Activity
COLO 205 = assay: Growth inhibition of human COLO205 cells assessed as cell growth at 1 uM after 48 hrs by SRB assay; details: COLO 205, 48 h, read-out: Activity
MCF7 = assay: Growth inhibition of human MCF7 cells assessed as cell growth at 100 uM after 48 hrs by SRB assay; details: MCF7, 48 h, read-out: Activity
[6] = Growth inhibition of human […] cells assessed as cell growth at 1 uM after 48 hrs by SRB assay; details: read-out: Activity
UACC-257 [7] = assay: Growth inhibition of human UACC257 cells assessed as cell growth at 1 uM after 48 hrs by SRB assay; details: UACC-257, 48 h, read-out: Activity
LOX IMVI = assay: Growth inhibition of human LOXIMVI cells assessed as cell growth at 100 uM after 48 hrs by SRB assay; details: read-out: Activity
HCT-15 = assay: Growth inhibition of human HCT15 cells assessed as cell growth at 1 mM after 48 hrs by SRB assay; details: HCT-15, 48 h, read-out: Activity
UACC-62 = assay: Growth inhibition of human UACC62 cells assessed as cell growth at 10 uM after 48 hrs by SRB assay; details: UACC-62, 48 h, read-out: Activity
HT-29 = assay: Growth inhibition of human HT-29 cells assessed as cell growth at 0.1 uM after 48 hrs by SRB assay; details: HT-29, 48 h, read-out: Activity
OVCAR-4 [8] = assay: Growth inhibition of human OVCAR4 cells after 48 hrs by […] growth inhibition assay; details: OVCAR-4, 48 h
UACC-257 [9] = assay: Growth inhibition of human UACC257 cells assessed as cell growth at 100 uM after 48 hrs by SRB assay; details: UACC-257, 48 h, read-out: Activity
OVCAR-8 = assay: Growth inhibition of human OVCAR8 cells assessed as cell growth at 0.1 uM after 48 hrs by SRB assay; details: OVCAR-8, 48 h, read-out: Activity
HCC 2998 [10] = assay: Growth inhibition of human HCC2998 cells after 48 hrs by […] growth inhibition assay; details: HCC 2998, 48 h
NCI/ADR-RES [11] = assay: Growth inhibition of human NCI/ADR-RES cells assessed as cell growth at 10 uM after 48 hrs by SRB assay; details: read-out: Activity
U-251 = assay: Growth inhibition of human U251 cells assessed as cell growth at 10 uM after 48 hrs by SRB assay; details: U-251, 48 h, read-out: Activity
SF-539 = assay: Growth inhibition of human SF539 cells assessed as cell growth at 10 uM after 48 hrs by SRB assay; details: SF-539, 48 h, read-out: Activity
[12] = read-out: LC50 (the source's name)
[13] = read-out: pLC50 (the source's name) (converted)

Which GI50 (CCRF-CEM; read-out: GI50) does the source give for `CNC(=O)NC[C@H]1O[C@@H](n2cnc3c(NC(=O)Nc4ccccc4)ncnc32)[C@H](O[Si](C)(C)C(C)(C)C)[C@@H]1O[Si](C)(C)C(C)(C)C` here?
Its GI50 is 3.59 µM.

What about the LC50 (lethal concentration, 50% net cell kill) (CCRF-CEM; read-out: LC50) of the same molecule?
Its LC50 (lethal concentration, 50% net cell kill) is greater than 100 µM.

What about the TGI (CCRF-CEM; read-out: TGI) of the same molecule?
The TGI was greater than 100 µM.

What about the GI50 (CCRF-CEM; read-out: pGI50 (converted)) of the same molecule?
Its GI50 is 3.63 µM.

What about the LC50 (lethal concentration, 50% net cell kill) (CCRF-CEM; read-out: pLC50 (converted)) of the same molecule?
The LC50 (lethal concentration, 50% net cell kill) was greater than 100 µM.

And the TGI (CCRF-CEM; read-out: pTGI (converted))?
Its TGI is greater than 100 µM.

And the growth at 0.1 µM (Malme-3M)?
The growth at 0.1 µM was 105%.

And the growth at 1 µM (SF-268 [1])?
The growth at 1 µM was 106%.

What about the growth at 100 µM (SK-MEL-2) of the same molecule?
The growth at 100 µM was -36%.

And the growth at 10 µM (SNB-75)?
The growth at 10 µM was 73%.

What about the growth at 10 µM (SNB-19) of the same molecule?
Its growth at 10 µM is 91%.

What about the growth at 0.1 µM (MDA-MB-231) of the same molecule?
Its growth at 0.1 µM is 105%.

And the growth at 0.1 µM (NCI/ADR-RES [2])?
The growth at 0.1 µM was 106%.

And the growth at 0.1 µM (SK-OV-3)?
The growth at 0.1 µM was 108%.

What about the growth at 100 µM (OVCAR-4 [3]) of the same molecule?
Its growth at 100 µM is 7%.

What about the GI50 (BT-549; read-out: GI50) of the same molecule?
Its GI50 is 2940 nM.

And the CC50 (BT-549; [12])?
The CC50 was greater than 100 µM.

And the TGI (BT-549; read-out: TGI)?
Its TGI is 8.18 µM.

What about the GI50 (BT-549; read-out: pGI50 (converted)) of the same molecule?
Its GI50 is 2950 nM.

And the CC50 (BT-549; [13])?
Its CC50 is greater than 100 µM.

What about the TGI (BT-549; read-out: pTGI (converted)) of the same molecule?
The TGI was 8.13 µM.

What about the growth at 10 µM (HCC 2998 [4]) of the same molecule?
The growth at 10 µM was 106%.

And the growth at 1 µM (NCI-H226)?
Its growth at 1 µM is 106%.

What about the GI50 (HCT-116; read-out: GI50) of the same molecule?
Its GI50 is 2110 nM.

And the CC50 (HCT-116; [12])?
The CC50 was 8.8 µM.

And the TGI (HCT-116; read-out: TGI)?
Its TGI is 4.31 µM.

And the GI50 (HCT-116; read-out: pGI50 (converted))?
Its GI50 is 2090 nM.

What about the CC50 (HCT-116; [13]) of the same molecule?
Its CC50 is 8.71 µM.

What about the TGI (HCT-116; read-out: pTGI (converted)) of the same molecule?
Its TGI is 4.27 µM.

What about the growth at 1000 µM (SF-268 [5]) of the same molecule?
The growth at 1000 µM was -45%.

What about the GI50 (EKVX; read-out: GI50) of the same molecule?
Its GI50 is 3.7 µM.

What about the CC50 (EKVX; [12]) of the same molecule?
The CC50 was greater than 100 µM.

And the TGI (EKVX; read-out: TGI)?
Its TGI is 30.6 µM.

What about the GI50 (EKVX; read-out: pGI50 (converted)) of the same molecule?
The GI50 was 3.72 µM.

What about the CC50 (EKVX; [13]) of the same molecule?
The CC50 was greater than 100 µM.

And the TGI (EKVX; read-out: pTGI (converted))?
Its TGI is 30.9 µM.

And the growth at 0.1 µM (SN12C)?
Its growth at 0.1 µM is 100%.

What about the growth at 100 µM (NCI-H522) of the same molecule?
The growth at 100 µM was -15%.

And the growth at 1 µM (COLO 205)?
The growth at 1 µM was 111%.

And the growth at 100 µM (MCF7)?
The growth at 100 µM was 6%.

What about the growth at 1 µM [6] of the same molecule?
The growth at 1 µM was 98%.

What about the growth at 1 µM (UACC-257 [7]) of the same molecule?
Its growth at 1 µM is 100%.

And the growth at 100 µM (LOX IMVI)?
The growth at 100 µM was -89%.

And the growth at 1000 µM (HCT-15)?
Its growth at 1000 µM is 6%.

And the growth at 10 µM (UACC-62)?
Its growth at 10 µM is 90%.

What about the growth at 0.1 µM (HT-29) of the same molecule?
The growth at 0.1 µM was 102%.

What about the GI50 (OVCAR-4 [8]; read-out: GI50) of the same molecule?
Its GI50 is 3.44 µM.

And the CC50 (OVCAR-4 [8]; [12])?
The CC50 was greater than 100 µM.

What about the TGI (OVCAR-4 [8]; read-out: TGI) of the same molecule?
The TGI was 43.9 µM.

And the GI50 (OVCAR-4 [8]; read-out: pGI50 (converted))?
The GI50 was 3.47 µM.

What about the CC50 (OVCAR-4 [8]; [13]) of the same molecule?
Its CC50 is greater than 100 µM.

And the TGI (OVCAR-4 [8]; read-out: pTGI)?
The TGI was 43.7 µM.

And the growth at 100 µM (UACC-257 [9])?
Its growth at 100 µM is 11%.

And the growth at 0.1 µM (OVCAR-8)?
Its growth at 0.1 µM is 108%.

And the GI50 (HCC 2998 [10]; read-out: GI50)?
The GI50 was 2020 nM.

And the CC50 (HCC 2998 [10]; [12])?
Its CC50 is 6.99 µM.

What about the TGI (HCC 2998 [10]; read-out: TGI) of the same molecule?
Its TGI is 3.75 µM.

What about the GI50 (HCC 2998 [10]; read-out: pGI50 (converted)) of the same molecule?
Its GI50 is 2000 nM.

What about the CC50 (HCC 2998 [10]; [13]) of the same molecule?
Its CC50 is 6.92 µM.

What about the TGI (HCC 2998 [10]; read-out: pTGI (converted)) of the same molecule?
The TGI was 3.72 µM.

What about the growth at 10 µM (NCI/ADR-RES [11]) of the same molecule?
Its growth at 10 µM is 103%.

What about the growth at 10 µM (U-251) of the same molecule?
The growth at 10 µM was 93%.

What about the growth at 10 µM (SF-539) of the same molecule?
Its growth at 10 µM is 91%.

With `CNC(=O)OC[C@H]1O[C@@H](n2cnc3c(NC(=O)Nc4ccccc4)ncnc32)[C@H](O[Si](C)(C)C(C)(C)C)[C@@H]1O[Si](C)(C)C(C)(C)C` as the molecule, how does the growth at 10 µM (SNB-75) read?
Its growth at 10 µM is 76.6%.

What about the growth at 10 µM (SNB-19) of the same molecule?
The growth at 10 µM was 114%.

And the growth at 10 µM (UACC-62)?
Its growth at 10 µM is 106%.

What about the growth at 10 µM (NCI/ADR-RES [11]) of the same molecule?
The growth at 10 µM was 97.6%.

What about the growth at 10 µM (U-251) of the same molecule?
Its growth at 10 µM is 86%.

What about the growth at 10 µM (SF-539) of the same molecule?
Its growth at 10 µM is 97.1%.
